Measured values: the NIST ThermoML archive (doi:10.1016/j.tca.2016.09.005)
Numbers after ± are expanded uncertainties.

What was measured:
[1] = xn = mol fraction of the nth substance listed; settings: 100 kPa, Liquid, x1 = 1; for speed of sound: Frequency=3 MHz, Sing-around technique in a fixed-path interferometer; for mass density: Vibrating tube method
[2] = refractive index (Na D-line) (dimensionless); settings: 293.15 K; 101.33 kPa; Liquid; Standard Abbe refractometry
[3] = Liquid; for speed of sound / mass density: 100 kPa; for speed of sound: Frequency=3 MHz, Sing-around technique in a fixed-path interferometer; for mass density: Vibrating tube method; for vapor or sublimation pressure: Closed cell (Static) method

In the case of CO [methanol] + OCCCO, the speed of sound ([1]; 283.15 K) is reported as 1153.3 ± 1.7 m/s, the mass density ([1]; 283.15 K) is reported as 800.67 ± 0.91 kg/m3 and the speed of sound ([1]; 293.15 K) is reported as 1119.6 ± 1.7 m/s. It also gave a mass density ([1]; 293.15 K) of 791.28 ± 0.91 kg/m3, a speed of sound ([1]; 303.15 K) of 1086.6 ± 1.7 m/s and a mass density ([1]; 303.15 K) of 781.84 ± 0.91 kg/m3. For the same compound, the speed of sound ([1]; 313.15 K) was 1054.2 ± 1.7 m/s and the mass density ([1]; 313.15 K) was 772.3 ± 0.91 kg/m3.
Compound CO [methanol] has a refractive index [2] of 1.3285 ± 0.0009, a speed of sound ([3]; 283.15 K) of 1153.3 ± 1.7 m/s and a mass density ([3]; 283.15 K) of 800.67 ± 0.91 kg/m3. For the same compound, the speed of sound ([3]; 293.15 K) was 1119.6 ± 1.7 m/s, the mass density ([3]; 293.15 K) was 791.28 ± 0.91 kg/m3 and the speed of sound ([3]; 303.15 K) was 1086.6 ± 1.7 m/s. It also gave a mass density ([3]; 303.15 K) of 781.84 ± 0.91 kg/m3, a speed of sound ([3]; 313.15 K) of 1054.2 ± 1.7 m/s and a mass density ([3]; 313.15 K) of 772.3 ± 0.91 kg/m3.
With CCO [ethanol] the refractive index [2] was 1.362 ± 0.001, the speed of sound ([3]; 283.15 K) was 1196.8 ± 1.9 m/s and the mass density ([3]; 283.15 K) was 798.22 ± 0.93 kg/m3. It also gave a speed of sound ([3]; 293.15 K) of 1162.3 ± 1.9 m/s, a mass density ([3]; 293.15 K) of 789.7 ± 0.93 kg/m3 and a speed of sound ([3]; 303.15 K) of 1128.2 ± 1.9 m/s. The mass density ([3]; 303.15 K) was 781.09 ± 0.93 kg/m3, the speed of sound ([3]; 313.15 K) was 1094.6 ± 1.9 m/s and the mass density ([3]; 313.15 K) was 772.34 ± 0.93 kg/m3.
With CCO [ethanol] + OCCCO the speed of sound ([1]; 283.15 K) was 1196.8 ± 1.9 m/s, the mass density ([1]; 283.15 K) was 798.22 ± 0.93 kg/m3 and the speed of sound ([1]; 293.15 K) was 1162.3 ± 1.9 m/s. The mass density ([1]; 293.15 K) was 789.7 ± 0.93 kg/m3, the speed of sound ([1]; 303.15 K) was 1128.2 ± 1.9 m/s and the mass density ([1]; 303.15 K) was 781.09 ± 0.93 kg/m3. The speed of sound ([1]; 313.15 K) was 1094.6 ± 1.9 m/s and the mass density ([1]; 313.15 K) was 772.34 ± 0.93 kg/m3.
With OCCCO [propan-1,3-diol] the refractive index [2] was 1.4393 ± 0.001, the speed of sound ([3]; 283.15 K) was 1659.5 ± 2.6 m/s and the mass density ([3]; 283.15 K) was 1058.85 ± 1.3 kg/m3. It also gave a speed of sound ([3]; 293.15 K) of 1636.3 ± 2.6 m/s, a mass density ([3]; 293.15 K) of 1052.61 ± 1.2 kg/m3 and a speed of sound ([3]; 303.15 K) of 1613.6 ± 2.6 m/s. The mass density ([3]; 303.15 K) was 1046.36 ± 1.2 kg/m3, the speed of sound ([3]; 313.15 K) was 1591.1 ± 2.6 m/s and the mass density ([3]; 313.15 K) was 1040.07 ± 1.2 kg/m3.
For O [water], the refractive index [2] was 1.333 ± 0.0009, the “vapor or sublimation pressure” value ([3]; 273.15 K) was 0.593 ± 0.019 kPa and the “vapor or sublimation pressure” value ([3]; 283.15 K) was 1.21 ± 0.038 kPa. The “vapor or sublimation pressure” value ([3]; 293.15 K) was 2.328 ± 0.071 kPa, the “vapor or sublimation pressure” value ([3]; 303.15 K) was 4.251 ± 0.13 kPa and the “vapor or sublimation pressure” value ([3]; 313.15 K) was 7.411 ± 0.22 kPa. The “vapor or sublimation pressure” value ([3]; 323.15 K) was 12.4 ± 0.37 kPa, the “vapor or sublimation pressure” value ([3]; 333.15 K) was 20 ± 0.6 kPa and the “vapor or sublimation pressure” value ([3]; 343.15 K) was 31.21 ± 0.94 kPa. For the same compound, the “vapor or sublimation pressure” value ([3]; 353.15 K) was 47.3 ± 1.4 kPa and the “vapor or sublimation pressure” value ([3]; 363.15 K) was 69.77 ± 2.1 kPa.
O [water] + OCCCO gave a mass density ([1]; 283.15 K) of 999.68 ± 0.9 kg/m3 and a speed of sound ([1]; 313.15 K) of 1529.2 ± 1.7 m/s.
